# From article PMC6278568, “Discovery of 3-Amino-2-Hydroxypropoxyisoflavone Derivatives as Potential Anti-HCV Agents” (Molecules, 2018)
# “Also recorded” adds a separate entry of the source.
# Experiments:
# HCV RNA = HCV RNA expression in Ava-5 cells by RT-qPCR; type: cell-based, Hepatitis C virus; details: Ava-5 cells, 2.5, 5, 10 and 20 μM, 3 days, normalized by GAPDH mRNA
# Description: (§1) To further confirm the anti-HCV effect of compound 6b, we treated compound 6b at indicated concentrations in Ava-5 cells for 3 days. […] Treatment of 0.1% dimethyl sulfoxide (DMSO) served as a mock control on inhibition of HCV replication (Figure 3 and Figure 4).
# Figure 3 Inhibition of HCV RNA expression in HCV-infected Ava-5 cells by 6b. Ava-5 cells were treated with 2.5, 5, 10 and 20 μM of 6b for 3 days. Total RNA was extracted and quantified HCV RNA levels by RT-qPCR. HCV RNA expression was normalized by cellular GAPDH mRNA. Treatment with 0.1% DMSO served as a mock control. The results are expressed as the means ± standard deviations (SD) of triplicate experiments.
# HO-1 protein expression = HO-1 protein expression in Ava-5 cells by western blotting; type: cell-based; details: 10 μM, 3 days, compared with DMSO-treated cells
# Description: To determine whether compounds 6b, 6e, 6h and 6i have impact on HO-1 protein expression in Ava-5 cells, we treated these compounds at 10 μM in Ava5 cells.
# (§2) Ava5 cells were seeded in 24-well plates at a density of 5 × 10^4 cells per well overnight and treated with indicated reagent at proper concentrations for 3 days. Cells were washed with cold phosphate buffer saline (PBS) and lysed by radioimmunoprecipitation assay (RIPA) lysis buffer (50 mM Tris-HCl, pH 7.5, 150 mM NaCl, 1% Nonidet P-40, 2 mM EDTA, 1 mM EGTA, 1 mM NaVO3, 10 mM NaF, 1 mM DTT, 1 mM PMSF, 25 μg/mL aprotinin, and 25 μg/mL leupeptin) and stored at −20 °C. The protein concentration was determined by the Bradford method. Ten μg protein were separated by 10% SDS-PAGE and transferred onto a polyvinylidene difluorid (PVDF) membrane. The membrane was blocked with 5% non-fat dried milk and incubated with specific antibodies against NS5B (1:5000; Abcam Cambridge, MA, USA), glyceraldehyde-3-phosphate dehydrogenase (GAPDH) and anti-HO-1 (1:3000, Abcam Cambridge, MA, USA). Antibodies were diluted in 5% milk containing Tris-buffered saline (TBS) and 0.5% Tween. The blotting signal was developed using an ECL detection kit (PerkinElmer, Norwalk, CT, USA) and was counted by the software Quantity One (Bio-Rad, Foster, CA, USA).
# Compound 6b, 6e, 6h and 6i induced HO-1 protein expression. Ava-5 cells were treated with compounds at 10 μM for 3 days. The cell lysate was subjected to western blotting with anti-HO-1 and anti-GAPDH antibodies.
# HCV replication = assay: Anti-HCV activity in Ava-5 HCV subgenomic replicon cells (firefly luciferase assay); type: cell-based, Hepatitis C virus; details: Ava-5 cells
# Description: Ava-5 cells were treated with compounds 6a–i or the positive ribavirin for three days, and then analyzed through firefly luciferase assay. The concentration that inhibited 50% HCV replication (EC50), the concentration that inhibited 50% cell growth (CC50), and the selectivity index (SI: CC50/EC50) of compounds were determined with ribavirin as a positive control.
# (§3) Compounds were dissolved in DMSO at 10 mM and then diluted in culture medium.
# (§4) Ava5 cells, an engineered HCV subgenomic replicon cell line, were cultured in Dulbecco′s modified Eagle′s medium (DMEM) with 10% heat-inactivated fetal bovine serum, 1% antibiotic–antimycotic, and 1% non-essential amino acids. Ava5 cells were maintained in DMEM with 1 mg mL^−1 G418 to maintain the stable expression of replicon.
# [1] = system: HCV protein synthesis (NS5B); assay: HCV protein synthesis in Ava-5 cells by western blotting; type: cell-based, Hepatitis C virus; details: Ava-5 cells, 2.5, 5, 10 and 20 μM, 3 days
# Description: as §1
# as §2, with “CA, USA). […]” for “CA, USA).”
# [2] = system: Nrf2 / ARE transactivation; assay: ARE transactivation, p3xARE-Luc reporter in Ava-5 cells (luciferase assay); type: cell-based; details: p3xARE-Luc-transfected Ava-5 cells, 1 and 10 μM, 3 days
# Excerpt: Heme oxygenase 1 expression is regulated by the transcription factors Nrf2, Keap1, and Bach1 through the binding of ARE in its promoter region; therefore, we determined whether isoflavones-mediated HO-1 induction was dependent on ARE transactivation by treating p3xARE-Luc-transfected ava-5 cells with increasing concentrations of […] for 3 days.
# Ava5 cells were transfected with the HO-1 promoter-driven luciferase plasmid, pHO-1-Luc, using the T-pro^TM transfection reagent (Ji-Feng Biotechnology Co., Ltd., Taipei, Taiwan) according to the manufacturer′s instructions. The transfected cells were treated with compounds at various concentrations for 3 days. Each transfection complex contains 0.1 μg pSEAP, a secreted alkaline phosphatase (SEAP) expression vector, for normalization luciferase activity serving as a transfection control. The luciferase activity assay was performed using the Bright-Glo Luciferase assay system (Promega) (Madison, WI, USA) according to the manufacturer′s instructions.
# Figure 6 Isoflavones inhibited HCV replication by upregulating Nrf2 expression. Compound 6b, 6e, 6h and 6i stimulated ARE transactivation in Ava-5 cells. The antioxidant response reporter plasmid, p3xARE-Luc, was transfected into Ava-5 cells and then treated with isoflavones (1 and 10 μM) for 3 days. The relative induction of antioxidant activity was determined by luciferase assay. The activity of untreated Ava-5 cells was considered to be 1.
# ava-5 cells = assay: Cytotoxicity in Ava-5 cells (XTT method); type: cell-based
# Description: as §3, §4
# (§5) For cytotoxicity tests, run in parallel with antiviral assays, plates at an initial density of (5 × 10^3 cells/well) were treated with or without serial dilutions of test compounds. Cell viability was determined after 72 h at 37 °C in a humidified CO2 (5%) atmosphere by the (2,3-bis[2-methyloxy-4-nitro-5-sulfophenyl]-2H-tetrazolium-5-carboxanilide) (XTT) method.
# [3] = Cytotoxicity in Ava-5 cells (XTT method); type: cell-based; details: human, Ava5 cells (HCV subgenomic replicon cell line); Ava-5 cells, 72 h, XTT method; read-out: CC50 (concentration causing a 50% growth inhibition of uninfected ava-5 cells)
# Description: as §3, §4, §5
smiles,measurement,setting,value
"COc1ccc(CCNCC(O)COc2ccc3c(=O)c(-c4ccc(OC)c(OC)c4)coc3c2)cc1OC (stereo not drawn) [Compound 6b, 7-{3-[(3,4-Dimethoxyphenethyl)amino]-2-hydroxypropoxy}-3-(3,4-dimethoxyphenyl)-4H-chromen-4-one]",HCV RNA replication / expression,HCV RNA,dose-dependently reduced; also recorded: inhibit the HCV RNA expression in Ava5 cells in a dose-dependent manner
same,HO-1 protein level,HO-1 protein expression,could induce HO-1 protein level
same,anti-HCV activity compared with ribavirin (in words),HCV replication; three days,more active than ribavirin
same,"SI (selectivity index, CC50/EC50)",HCV replication; CC50/EC50,21.08
same,EC50,"HCV replication; Hepatitis C virus, Ava5, 72 h, treated for three days, firefly luciferase assay, read-out: EC50 (concentration resulting in a 50% inhibition in virus production / HCV replication)",6.53 ± 0.57 µM
same,anti-HCV activity relative to ribavirin,HCV replication; ratio of EC50 values,approximately 2 fold
same,HCV protein synthesis,[1],dose-dependently reduced
same,ARE-mediated luciferase activity,[2],increased ARE-mediated luciferase activity
same,melting point,,134 to 135 °C
same,cell cytotoxicity at the antiviral test concentrations,"ava-5 cells; Ava5 cells, 2.5-20 μM, 3 days",without cell cytotoxicity
same,cytotoxicity compared with ribavirin (in words),ava-5 cells; Ava-5 cells,less cytotoxic than ribavirin
same,CC50 at 72 h,[3],138 ± 6.91 µM
